From paper PMC6013247, “Preclinical characterization of INCB053914, a novel pan-PIM kinase inhibitor, alone and in combination with anticancer agents, in models of hematologic malignancies” (PLoS ONE, 2018)

What was measured:
PRKAA1 = PRKAA1 (Homo sapiens, UniProt Q13131); assay: Kinase selectivity panel; assay type: biochemical; conditions: [ATP] = 1 mM
PLK3 = PLK3 (Homo sapiens, UniProt Q9H4B4); assay: Kinase selectivity panel; assay type: biochemical; conditions: [ATP] = 1 mM
ERBB4 = ERBB4 (Homo sapiens, UniProt Q15303); assay: Kinase selectivity panel; assay type: biochemical; conditions: [ATP] = 1 mM
RET = RET (Homo sapiens, UniProt P07949); assay: Kinase selectivity panel; assay type: biochemical; conditions: [ATP] = 1 mM
[1] = target: Per-Arnt-Sim (PAS) kinase (Homo sapiens, UniProt Q96RG2); assay: PAS kinase activity, further evaluation; assay type: biochemical
Per-Arnt-Sim (PAS) kinase, sequence (Q96RG2 whole entry): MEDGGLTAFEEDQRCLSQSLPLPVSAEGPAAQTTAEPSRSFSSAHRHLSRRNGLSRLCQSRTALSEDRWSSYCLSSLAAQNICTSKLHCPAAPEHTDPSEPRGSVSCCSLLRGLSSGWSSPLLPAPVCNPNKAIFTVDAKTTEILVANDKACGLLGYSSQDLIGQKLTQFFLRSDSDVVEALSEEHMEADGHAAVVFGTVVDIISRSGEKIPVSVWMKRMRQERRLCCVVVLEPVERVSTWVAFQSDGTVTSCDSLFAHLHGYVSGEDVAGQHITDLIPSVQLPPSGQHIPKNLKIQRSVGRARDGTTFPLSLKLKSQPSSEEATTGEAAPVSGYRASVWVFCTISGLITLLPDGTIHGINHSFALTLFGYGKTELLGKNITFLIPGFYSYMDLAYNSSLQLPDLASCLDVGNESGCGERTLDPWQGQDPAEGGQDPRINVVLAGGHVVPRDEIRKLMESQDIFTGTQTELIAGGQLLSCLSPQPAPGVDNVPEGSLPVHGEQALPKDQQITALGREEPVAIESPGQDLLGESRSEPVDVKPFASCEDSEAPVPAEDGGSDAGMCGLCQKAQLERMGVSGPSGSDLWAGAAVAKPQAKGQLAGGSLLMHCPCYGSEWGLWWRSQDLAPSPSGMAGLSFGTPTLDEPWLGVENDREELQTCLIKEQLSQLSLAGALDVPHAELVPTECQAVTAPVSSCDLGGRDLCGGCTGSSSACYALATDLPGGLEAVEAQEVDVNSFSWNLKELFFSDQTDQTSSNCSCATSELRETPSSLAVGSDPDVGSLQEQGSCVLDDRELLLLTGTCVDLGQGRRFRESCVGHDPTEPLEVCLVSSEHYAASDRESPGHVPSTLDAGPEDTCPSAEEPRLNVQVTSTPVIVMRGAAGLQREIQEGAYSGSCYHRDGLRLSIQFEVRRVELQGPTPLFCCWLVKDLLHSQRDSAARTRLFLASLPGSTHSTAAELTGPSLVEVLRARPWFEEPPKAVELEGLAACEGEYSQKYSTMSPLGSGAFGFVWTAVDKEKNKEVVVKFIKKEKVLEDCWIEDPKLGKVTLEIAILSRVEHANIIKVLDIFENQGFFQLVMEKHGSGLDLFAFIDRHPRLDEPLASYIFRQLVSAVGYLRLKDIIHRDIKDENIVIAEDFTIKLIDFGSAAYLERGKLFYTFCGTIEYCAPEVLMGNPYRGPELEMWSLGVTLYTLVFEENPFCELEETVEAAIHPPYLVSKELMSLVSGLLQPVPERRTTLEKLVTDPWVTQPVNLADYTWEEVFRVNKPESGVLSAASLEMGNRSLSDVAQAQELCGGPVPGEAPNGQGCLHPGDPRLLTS

FAK = FAK (Homo sapiens, UniProt Q05397); assay: Kinase selectivity panel; assay type: biochemical; conditions: [ATP] = 1 mM
panel of 192 kinases = assay: Broader panel of 192 kinases (PerkinElmer); assay type: biochemical; conditions: INCB053914 100 nM; results not shown
[2] = Plasma concentrations of INCB053914 in tumor-bearing mice; assay type: in vivo, mouse; conditions: up to 16 hours post oral administration, MOLM-16 and KMS-12-BM tumor-bearing mice
Experimental: Human MOLM-16 (AML) and KMS-12-BM (MM) xenografts were established in SCID mice. For the evaluation of intratumoral pBAD inhibition, tumor-bearing mice (three to eight mice/group) were treated with a single oral dose of INCB053914 at doses ranging from 0 (vehicle) to 100 mg/kg. In one representative experiment, mice were sacrificed 4 hours after a single dose, and tumors were collected to analyze the levels of pBAD relative to those of vehicle-administered controls. Plasma samples were collected for pharmacokinetic analysis.
Concentrations of INCB053914 in plasma were analyzed using liquid chromatography tandem–mass spectrometry at 2, 4, 8, and 16 hours postdose (see Supporting Information, S3 File).
Blood samples from each study were collected using EDTA and centrifuged to obtain plasma. The calibration curves were prepared in mouse plasma (BioreclamationIVT, Westbury, New York). Samples (50 µl) were placed in a 2-ml square well plate (Costar, Corning, New York). Acetonitrile/methanol 9/1 v/v (550 µl) containing an internal standard was added for precipitation of the protein. The 96-well plate was covered, vortexed for 5 minutes, and centrifuged for 10 minutes at 3,000 rpm. […] The samples were analyzed for INCB053914 by liquid chromatography tandem–mass spectrometry using gradient high-performance liquid chromatography and atmospheric pressure chemical ionization.

BTK = BTK (Homo sapiens, UniProt Q06187); assay: Kinase selectivity panel; assay type: biochemical; conditions: [ATP] = 1 mM
BTK, sequence (Q06187 whole entry): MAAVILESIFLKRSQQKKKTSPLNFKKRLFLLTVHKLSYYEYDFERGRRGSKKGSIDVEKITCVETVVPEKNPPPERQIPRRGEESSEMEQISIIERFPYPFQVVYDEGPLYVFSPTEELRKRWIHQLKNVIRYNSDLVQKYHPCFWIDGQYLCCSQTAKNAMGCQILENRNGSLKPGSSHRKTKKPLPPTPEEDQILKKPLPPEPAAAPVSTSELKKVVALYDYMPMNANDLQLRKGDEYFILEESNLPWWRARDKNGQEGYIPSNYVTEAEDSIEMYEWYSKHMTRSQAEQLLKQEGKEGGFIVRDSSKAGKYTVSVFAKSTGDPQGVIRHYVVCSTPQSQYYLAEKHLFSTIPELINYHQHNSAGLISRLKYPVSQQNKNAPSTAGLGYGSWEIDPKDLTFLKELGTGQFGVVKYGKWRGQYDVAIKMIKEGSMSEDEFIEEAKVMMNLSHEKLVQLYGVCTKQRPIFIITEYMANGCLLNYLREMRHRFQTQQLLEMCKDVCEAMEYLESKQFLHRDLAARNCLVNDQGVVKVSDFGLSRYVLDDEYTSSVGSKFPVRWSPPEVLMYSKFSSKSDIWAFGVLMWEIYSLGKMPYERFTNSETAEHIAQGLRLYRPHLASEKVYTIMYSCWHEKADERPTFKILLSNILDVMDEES

SGK2 = SGK2 (Homo sapiens, UniProt Q9HBY8); assay: Kinase selectivity panel; assay type: biochemical; conditions: [ATP] = 1 mM
SGK2, sequence (Q9HBY8 whole entry, species assumed): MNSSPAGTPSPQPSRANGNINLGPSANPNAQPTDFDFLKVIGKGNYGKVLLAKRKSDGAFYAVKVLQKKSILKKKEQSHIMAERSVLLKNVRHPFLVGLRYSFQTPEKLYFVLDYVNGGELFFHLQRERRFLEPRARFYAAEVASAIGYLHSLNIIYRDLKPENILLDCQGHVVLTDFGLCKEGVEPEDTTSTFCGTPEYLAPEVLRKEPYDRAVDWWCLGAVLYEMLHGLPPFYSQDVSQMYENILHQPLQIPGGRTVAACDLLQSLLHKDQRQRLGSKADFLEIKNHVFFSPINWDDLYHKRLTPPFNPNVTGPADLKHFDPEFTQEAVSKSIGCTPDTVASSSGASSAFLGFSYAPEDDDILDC

MOLM-16 (AML) xenografts = assay: Tumor growth in MOLM-16 (AML) xenograft; assay type: in vivo, mouse
Experimental: Female immune compromised (severe combined immunodeficiency [SCID]) mice (5–9 weeks of age; Charles River Laboratories, Wilmington, Massachusetts) were inoculated with MOLM-16, KG-1, or KMS-12-BM cells. A cell suspension in Dulbecco’s phosphate-buffered saline (DPBS) (1 × 10^8 cells/ml) was mixed 1:1 (v/v) with matrigel, and 200 μl was injected subcutaneously into the flank of each mouse. Studies of INCB053914 combination regimens used xenograft models derived from INA-6 (MM) cells or Pfeiffer (DLBCL) cells. INA-6 tumor fragments were injected subcutaneously as brei (100 μl in Hank’s balanced salt solution [HBSS, 1:10 v/v]) into the flank of each mouse; Pfeiffer tumor fragments (1 cm × 1 cm) were directly implanted. The treatment of tumor-bearing mice started 7 to 24 days after tumor inoculation for efficacy studies and approximately 14 to 27 days after tumor inoculation for pharmacodynamic studies.
For efficacy studies, mice were sorted to obtain approximately equivalent mean tumor volumes in each group. The starting mean tumor volume in efficacy studies for all groups ranged from 158 mm^3 to 249 mm^3, and groups consisted of eight or nine animals. The mean tumor volume in pharmacodynamic studies for all groups ranged from 114 mm^3 to 833 mm^3, and groups consisted of three to eight animals. […]
Tumor volume was calculated in two dimensions using the equation: volume = [length × (width^2)] / 2, where the larger number was length and the smaller number was width. Effects on tumor growth were reported as percent tumor growth inhibition calculated as (1 − [treatment volume / control volume]) × 100, where control volume was the vehicle/untreated tumor volume on a given day and treatment volume was any treatment group tumor volume on that same day. Statistical significance of differences between treatment and vehicle controls was assessed using analysis of variance single factor test.

AURKA = AURKA (Homo sapiens, UniProt O14965); assay: Kinase selectivity panel; assay type: biochemical; conditions: [ATP] = 1 mM
AURKA, sequence (O14965 whole entry): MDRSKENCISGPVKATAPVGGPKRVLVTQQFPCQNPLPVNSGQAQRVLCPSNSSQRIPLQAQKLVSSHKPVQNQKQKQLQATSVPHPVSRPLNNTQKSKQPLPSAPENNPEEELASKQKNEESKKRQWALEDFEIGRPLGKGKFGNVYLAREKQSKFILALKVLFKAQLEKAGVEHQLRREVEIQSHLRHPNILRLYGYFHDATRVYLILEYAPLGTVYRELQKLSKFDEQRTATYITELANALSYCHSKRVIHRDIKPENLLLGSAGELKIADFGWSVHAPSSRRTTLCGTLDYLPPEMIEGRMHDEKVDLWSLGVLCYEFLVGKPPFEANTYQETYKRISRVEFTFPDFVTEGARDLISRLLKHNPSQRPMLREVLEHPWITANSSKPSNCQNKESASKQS

SGK3 = SGK3 (Homo sapiens, UniProt Q96BR1); assay: Kinase selectivity panel; assay type: biochemical; conditions: [ATP] = 1 mM
SGK3, sequence (Q96BR1 whole entry, species assumed): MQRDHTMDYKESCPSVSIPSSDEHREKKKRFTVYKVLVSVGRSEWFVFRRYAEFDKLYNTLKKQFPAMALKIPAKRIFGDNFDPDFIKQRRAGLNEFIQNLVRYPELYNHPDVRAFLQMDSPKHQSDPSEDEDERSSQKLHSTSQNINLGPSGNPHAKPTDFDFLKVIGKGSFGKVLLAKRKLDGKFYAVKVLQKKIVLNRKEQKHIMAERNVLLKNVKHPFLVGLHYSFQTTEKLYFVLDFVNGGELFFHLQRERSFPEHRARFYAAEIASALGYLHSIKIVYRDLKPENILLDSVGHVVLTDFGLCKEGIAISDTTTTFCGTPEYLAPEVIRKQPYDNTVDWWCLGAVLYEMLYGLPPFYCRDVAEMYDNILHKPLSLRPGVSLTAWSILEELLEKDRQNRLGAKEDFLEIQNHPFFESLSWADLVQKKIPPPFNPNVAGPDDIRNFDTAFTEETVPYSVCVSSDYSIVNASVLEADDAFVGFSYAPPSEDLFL

JNK1 = JNK1 (Homo sapiens, UniProt P45983); assay: Kinase selectivity panel; assay type: biochemical; conditions: [ATP] = 1 mM
JNK1, sequence (P45983 whole entry): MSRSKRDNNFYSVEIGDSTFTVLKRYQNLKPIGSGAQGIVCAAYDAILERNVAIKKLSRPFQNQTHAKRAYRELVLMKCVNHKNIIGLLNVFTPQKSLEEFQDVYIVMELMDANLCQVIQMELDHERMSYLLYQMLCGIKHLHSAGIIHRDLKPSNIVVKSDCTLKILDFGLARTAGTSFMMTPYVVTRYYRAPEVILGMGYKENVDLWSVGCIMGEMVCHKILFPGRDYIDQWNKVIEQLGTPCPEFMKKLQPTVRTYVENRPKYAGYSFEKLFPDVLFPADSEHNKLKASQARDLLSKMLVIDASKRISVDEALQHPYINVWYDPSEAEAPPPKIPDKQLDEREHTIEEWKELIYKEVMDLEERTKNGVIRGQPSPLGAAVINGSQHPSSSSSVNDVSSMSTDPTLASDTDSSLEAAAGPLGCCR

STK4 = STK4 (Homo sapiens, UniProt Q13043); assay: Kinase selectivity panel; assay type: biochemical; conditions: [ATP] = 1 mM
STK4, sequence (Q13043 whole entry, species assumed): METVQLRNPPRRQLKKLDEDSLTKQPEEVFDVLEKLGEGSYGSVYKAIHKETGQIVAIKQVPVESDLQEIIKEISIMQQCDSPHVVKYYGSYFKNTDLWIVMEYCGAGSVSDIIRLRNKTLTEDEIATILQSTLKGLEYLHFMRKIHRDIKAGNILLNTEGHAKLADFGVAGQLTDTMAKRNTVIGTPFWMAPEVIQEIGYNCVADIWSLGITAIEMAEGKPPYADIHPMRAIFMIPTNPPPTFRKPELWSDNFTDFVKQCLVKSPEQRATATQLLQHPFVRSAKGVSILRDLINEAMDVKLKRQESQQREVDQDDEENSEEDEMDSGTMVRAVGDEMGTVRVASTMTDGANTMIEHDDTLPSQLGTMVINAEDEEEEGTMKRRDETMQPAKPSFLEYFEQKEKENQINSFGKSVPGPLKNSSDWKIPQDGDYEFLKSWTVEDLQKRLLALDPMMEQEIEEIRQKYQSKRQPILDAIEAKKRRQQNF

DDR2 = DDR2 (Homo sapiens, UniProt Q16832); assay: Kinase selectivity panel; assay type: biochemical; conditions: [ATP] = 1 mM
FGFR3 = FGFR3 (Homo sapiens, UniProt P22607); assay: Kinase selectivity panel; assay type: biochemical; conditions: [ATP] = 1 mM
FGFR3, sequence (P22607 23-806): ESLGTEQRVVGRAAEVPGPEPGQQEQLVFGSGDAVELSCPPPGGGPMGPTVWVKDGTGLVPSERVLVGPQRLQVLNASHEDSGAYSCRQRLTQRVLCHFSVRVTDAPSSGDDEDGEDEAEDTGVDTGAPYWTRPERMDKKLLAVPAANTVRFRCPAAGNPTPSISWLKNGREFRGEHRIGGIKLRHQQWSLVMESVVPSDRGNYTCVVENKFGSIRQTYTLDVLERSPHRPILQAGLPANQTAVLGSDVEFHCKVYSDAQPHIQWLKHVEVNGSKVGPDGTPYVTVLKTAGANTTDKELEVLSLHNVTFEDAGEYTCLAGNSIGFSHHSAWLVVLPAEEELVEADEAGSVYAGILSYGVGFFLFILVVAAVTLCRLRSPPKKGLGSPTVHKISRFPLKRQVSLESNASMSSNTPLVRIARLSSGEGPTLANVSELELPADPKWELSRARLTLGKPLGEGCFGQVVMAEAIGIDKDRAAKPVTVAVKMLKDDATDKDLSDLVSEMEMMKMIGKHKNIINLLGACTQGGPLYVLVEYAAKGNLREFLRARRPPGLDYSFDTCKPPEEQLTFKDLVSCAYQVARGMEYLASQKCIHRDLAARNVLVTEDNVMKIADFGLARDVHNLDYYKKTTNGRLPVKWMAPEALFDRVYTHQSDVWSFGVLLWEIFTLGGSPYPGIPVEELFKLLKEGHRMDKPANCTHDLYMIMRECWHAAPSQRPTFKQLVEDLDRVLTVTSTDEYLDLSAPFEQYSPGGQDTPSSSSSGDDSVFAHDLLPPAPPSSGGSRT

C[C@H]1CN(c2c(NC(=O)c3ccc(F)c(-c4c(F)cccc4F)n3)cnc3c2CC[C@H]3O)C[C@@H](N)[C@@H]1O.O=P(O)(O)O [INCB053914, N-((R)-4-((3R,4R,5S)-3-amino-4-hydroxy-5-methylpiperidin-1-yl)-7-hydroxy-6,7-dihydro-5H-cyclopenta[b]pyridin-3-yl)-6-(2,6-difluorophenyl)-5-fluoropicolinamide phosphate]
IC50 (PRKAA1): > 20 µM | IC50 (PLK3): > 20 µM | IC50 (ERBB4): > 20 µM | IC50 (RET): > 20 µM | effect on PAS kinase activity relative to PIM2 [1]: approximately equipotent effects on PIM2 and PAS kinase activities | IC50 (FAK): > 20 µM | kinases significantly inhibited in the panel of 192 kinases (panel of 192 kinases): no kinase other than Per-Arnt-Sim (PAS) kinase was significantly inhibited | plasma concentrations versus dose [2]: suggested dose proportionality | IC50 (BTK): > 20 µM | IC50 (SGK2): > 20 µM | lowest dose at which tumor growth inhibition was apparent (MOLM-16 (AML) xenografts; MOLM-16 model): 1 mg/kg | maximal tumor growth inhibition (MOLM-16 (AML) xenografts; MOLM-16 tumors, 30 mg/kg twice a day orally): 96% | mice with a partial regression (PR) (MOLM-16 (AML) xenografts; MOLM-16 tumors, 30 mg/kg twice a day, PR = ≥50% decrease in tumor volume vs treatment start, eight mice/group, 30 mg/kg): six of eight | IC50 (AURKA): > 20 µM | IC50 (SGK3): > 20 µM | IC50 (JNK1): > 20 µM | IC50 (STK4): > 20 µM | IC50 (DDR2): > 20 µM | IC50 (FGFR3): > 20 µM
